From patent publication US20060292553A1, “Method for study of the genetic and functional variability of HIV and kit for using it” (Bioalliance Pharma, a corporation of France, priority 2004, published 2006) come the findings set out here.

Test [1] concerns HIV-1 virus of the patient (recombinant virus). Put plainly: Phenoscript phenotyping, recombinant virus of the patient in the presence of drugs. Type of test: cell-based. The text has this:
The principle of the phenotypical tests for resistance is based on the measurement in vitro of the growth of a virus in the patient in the presence of drugs.
Viral RNA derived from the plasma is extracted, then the regions coding for inverse transcriptase and/or protease are amplified using PCR in phenotypical tests. Amplicons are recombined in vitro in a defective vector to form a viral particle. This viral particle is placed in a culture in the presence of increasing concentrations of drugs. The results are expressed in a “fold change” ratio of IC 50 (or IC90) with respect to a control virus which corresponds to the concentration of the drug that inhibits 50% (or 90%) of the viral replication in comparison to the reference wild type virus. The resistance level is defined as a function of thresholds of sensitivity (cut off).
(§1) Tables 2 and 3 below show two examples of samples of plasma in patients 1 and 2, respectively, for which the amplicons generated by the method above have made it possible to implement the genotyping according to the Trugene and Viroseq techniques and phenotyping according to the Phenoscript technique.
The principle of the tests of phenotypical resistance is based on the measurement in vitro of the growth of a virus in the patient in the presence of drug(s)/active agent(s), compared to a reference virus (resistance index). The level of resistance is defined as a function of thresholds of sensitivity (cut off). A second score of 0 to 2 is attributed to each of the three levels of resistance determined by the interpretation. Table 12 summarizes the interpretations given by the main phenotypical tests, PhenoSense and Phenoscript, as a function of their thresholds of sensitivity and assigns a phenotypical score corresponding to the magnitude of resistance.

The test system of test [2] is HIV-1 virus of the patient (protease and inverse transcriptase genes). The test is described as follows: ViroSeq genotyping, evidence of resistance from the amplicon of patient plasma. The following applies: M184V, T215Y, L63P.
Excerpt: (§2) The procedure to generate the first specific amplicon is as follows: • 1) Viral RNA contained in a biological sample is extracted. The biological sample may be derived from a sample from the patient. It may be a blood or serum sample, but may also come from a biological fluid or a biopsy or any other tissue preparation. The biological sample may also come from a viral culture. In a general manner, a biological sample corresponds to all types of samples containing one or several HIV-1 variants. The term “HIV-1 virus” in this Example is used to mean any viral strain belonging to the sub-types B and non-B. • 2) The RNA obtained in (1) is retrotranscribed and amplified with one of the pairs of specific primers in Table 1 below to obtain an amplicon characterized by: […]
as §1
The RNA is extracted using plasmas from patients according to a known extraction technique based on the affinity of RNA with respect to silica columns, the viral RNA is retrotranscribed and amplified using PCR with primers specific to the pol gene making possible amplification of a sequence of nucleic acids of 1800 pb comprising, for the protease, codons 1 to 99 and comprising, for the inverse transcriptase, codons 1 to 335. The DNA thus obtained is then sequenced with seven different primers according to the Big Dye™ Terminator technology, a sequencing technique using dye terminators. The sequence reaction is initiated by each specific non-labeled primer, then interrupted by each of the labeled nucleotides. All of the fragments synthesized are then separated on electrophoresis gel. The color of the fluorochrome will then be registered using an automatic sequencer (ABI Prism 377 DNA sequencer), specifically indicating the fragments ending with each of the four labeled nucleotides. The sequences, once reconstituted, are compared to the sequence of a reference virus using an alignment software.
(§3) The measurement of genetic variability is carried out using a specific sequence of nucleic acids amplified according to aspects of the method, then analyzed according to known sequencing techniques (Trugene, ViroSeq). Mutations in the genes of the protease and of the inverse transcriptase identified by these tests are interpreted according to algorithms that are updated regularly. A first score of 0 to 2 is attributed to each of the three levels of resistance determined by the interpretation. Table 11 below summarizes the interpretations given by the Trugene and ViroSeq tests as a function of the mutations identified and of the anti-retroviruses (ARV) used and assigns a genotypical score corresponding to the magnitude of the resistance.

The test system is the same in test [3]. Put plainly: Trugene genotyping, interpretation of resistances from the amplicon of patient plasma. The following applies: M184V, T215Y, L63P.
Excerpt: as §2, §1
The Trugene HIV-1 genotyping kit is used to determine the genotype of the virus of sub-types B and non-B. The RNA is extracted using plasma from patients, according to known techniques, the viral RNA is retrotranscribed and amplified using PCR with primers specific for the pol gene making possible amplification of a sequence of nucleic acids of 1300 pb comprising, for the protease, codons 1 to 99 and comprising, for the inverse transcriptase, codons 1 to 247. The product of RT-PCR thus obtained is used in each of the 16 sequencing reactions by using the principle of CLIP™ reaction, sequencing technique using labeled primers (dye primers). Four pairs of different primers are used for this sequencing method, two pairs for the sequencing of the protease and two other pairs for the sequencing of the inverse transcriptase. Each sequence reaction is initiated by a specific dye primer (CLIP™), then interrupted by the corresponding labeled nucleotide. All of the fragments synthesized are then separated on electrophoresis gel and analyzed by an automatic sequencer specifically indicating the fragments ending with each of the four labeled nucleotides. The sequences, once reconstituted, are compared to the sequence of a reference virus using an alignment software.
as §3

[4] abbreviates: Patient 1 plasma sample, mutations D67N, K70R, K219E, K103N, V108I, P225H.
[5] abbreviates: Patient 2 plasma sample, mutations M41L, L210W, M36L.

Regarding `O=c1[nH]cnc2c1ncn2[C@H]1CC[C@@H](CO)O1` [ddI], the “Phenoscript Contribution to the therapeutic response” value in test [1] (Patient 1 plasma sample) is listed as “Probable”; in test [1] (Patient 2 plasma sample), “Possible”. The “Viroseq Evidence of resistance” value in test [2] (setting [4]) and in test [2] (setting [5]) was “Possible” in each case. The “Trugene Interpretation of resistances” value in test [3] (setting [4]) and in test [3] (setting [5]) was “Resistance” each time.
